Columns and labels:
MDCK kidney cell line = assay: growth response of MDCK cells; format: cell-based, dog
[1] = system: NRK (normal rat kidney) cells; assay: tritium labeled thymidine incorporation of low and high passage NRK cells, with and without EGF; format: cell-based; details: low passage NRK cells, serum free medium
Description: (§1) Further exploration of this point was done with the cell line designated NRK (normal rat kidney). When used at a low passage number these cells behave as a normal, non-tumorigenic line, as evidenced by their low rates of colony formation in soft agar. This growth pattern facilitated wide spread use of the NRK cells as bioassay targets for alpha- and beta-transforming growth factors. The bioassay of transforming growth factors by soft agar colony formation was shown by others to require the additon of epidermal growth factor (EGF). At higher passage numbers, these cells progressively increase their capacity to form colonies in soft agar without requiring the presence of growth factor supplements to the usual serum containing medium. Using these properties, we have asked whether low and high passage NRK cells responded to KDGF both with and without added EGF. These experiments were conducted in serum free medium, since the presence of even low concentrations (i.e. 1%, vol/vol) of serum inhibited KDGF action. […] Thus with the relatively non-tumorigenic pheno-type NRK cells, KDGF and EGF were synergistic when cells were in sparse culture. […] In a final experiment, the growth promoting effects of EGF and/or KDGF were compared on LLCK-PK1 pig kidney cells. […] EGF alone was mitogenic for LLCK-PK1 cells, whereas KDGF was not. […]

[2] = system: LLCK-PK1 pig kidney cells; assay: growth promoting effects of EGF and/or KDGF on LLCK-PK1 cells; format: cell-based
Description: as §1

epidermal growth factor [EGF]
growth response (MDCK kidney cell line): responded
growth (tritium labeled thymidine incorporation), factor alone ([1]; confluent cultures): Neither KDGF alone nor EGF alone promoted growth
mitogenic response, factor alone ([1]; non-confluent cultures): limited mitogenic responses
mitogenic activity, factor alone [2]: mitogenic

From patent publication US4670539A, “Peptide growth factors derived from estrogen responsive kidney tissue” (Board of Regents, The University of Texas, priority 1984, dated 1987)
